Laboratory results from US8901307B2, “Chemical compounds 251” (AstraZeneca AB, priority 2008, dated 2014).
Counter-ions that a name gives are not always drawn.

How the values were obtained:
human His-PIM1 [2-313] = biological target: T1, human His-PIM1 [2-313] (Homo sapiens, UniProt P11309); assay: PIM1 in-vitro mobility shift assay (Caliper LC3000, FL-Ahx-Bad phosphorylation); type: biochemical; conditions: 1.5 h; percent inhibition at 0.3 uM compound; read-out: PIM1 % I at 0.3 uM
T1 construct: purified human His-PIM1 [2-313] enzyme; His (N); purchased University of Dundee, Scotland; host or cells: baculovirus system
T1 sequence (P11309 2-313): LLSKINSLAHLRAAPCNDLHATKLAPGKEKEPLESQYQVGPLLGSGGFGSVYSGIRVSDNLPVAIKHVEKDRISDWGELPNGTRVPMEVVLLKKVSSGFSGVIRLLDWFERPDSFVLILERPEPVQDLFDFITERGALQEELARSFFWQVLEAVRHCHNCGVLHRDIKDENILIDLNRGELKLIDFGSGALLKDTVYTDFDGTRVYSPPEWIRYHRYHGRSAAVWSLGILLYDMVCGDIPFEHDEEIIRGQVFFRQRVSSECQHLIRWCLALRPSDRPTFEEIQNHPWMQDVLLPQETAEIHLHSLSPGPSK
Excerpt: PIM1 In-Vitro Mobility Shift Assay
(§1) One may determine the activity of purified human His-PIM1 [2-313] enzyme in-vitro using a mobility shift assay on a Caliper LC3000 reader (Caliper, Mass.), which measures fluorescence of a phosphorylated and unphosphorylated FL-Ahx-Bad (FITC-(AHX)RSRHSSYPAGT-COOH, Primm 200606-00289, Primm Biotech, Mass.) and calculates a ratiometric value to determine percent turnover. One may express PIM1 (University of Dundee, Scotland) in baculovirus system with a typical yield of >85% purity.
(§2) One determines phosphorylation of the FL-Ahx-Bad in the presence and absence of the compound of interest. One preincubates 5 µl of Enzyme/Substrate/adenosine triphosphate (ATP) mix consisting of 2.4 nM PIM1, 3.6 uM FL-Ahx-Bad, and 240 uM ATP in 1.2× buffer with 2 ul of compound for 20 minutes at 25° C. One initiates reactions with 5 ul of Metal mix consisting of 24 mM MgCl2 in 1.2× buffer and incubated at 25° C. for 90 minutes and stops the reactions by addition of 5 ul of Stop mix consisting of 100 mM HEPES, 121 mM ethylenediamine tetraacetic acid, 0.8% Coatin Reagent 3 (Caliper, Mass.), and 0.01% Tween. One detects phosphorylated and unphosphorylated substrate by a Caliper LC3000 reader (Caliper, Mass.) in the presence of separation buffer consisting of 100 mM HEPES, 16 mM ethylenediamine tetraacetic acid, 0.1% Coatin Reagent 3 (Caliper, Mass.), 0.015% Brij-35, 5% DMSO, and 5.6 mM MgCl2. One may use the following separation conditions for a Caliper LC3000: −1.0 PSI, −2000 V upstream voltage, −400 V downstream voltage, 0.2 second sample sip, 45 second post sip, 10% laser strength.
The table 1 below provides the percent inhibition of PIM1 at 0.3 micromolar for Examples provided herein. Several examples were tested more than once. Variations in the experimental outcomes, negative values, or values over 100% inhibition are presumably due to experimental error inherent in the assay.

human His-PIM2 [23-299] = biological target: T2, human His-PIM2 [23-299] (Homo sapiens, UniProt Q9P1W9); assay: PIM2 in-vitro mobility shift assay (Caliper LC3000, FL-Ahx-Bad phosphorylation); type: biochemical; conditions: 1.5 h; percent inhibition at 0.3 uM compound; read-out: PIM2 % I at 0.3 uM
T2 construct: purified human His-PIM2 [23-299] enzyme; His (N); host or cells: E. coli
T2 sequence (Q9P1W9 23-299): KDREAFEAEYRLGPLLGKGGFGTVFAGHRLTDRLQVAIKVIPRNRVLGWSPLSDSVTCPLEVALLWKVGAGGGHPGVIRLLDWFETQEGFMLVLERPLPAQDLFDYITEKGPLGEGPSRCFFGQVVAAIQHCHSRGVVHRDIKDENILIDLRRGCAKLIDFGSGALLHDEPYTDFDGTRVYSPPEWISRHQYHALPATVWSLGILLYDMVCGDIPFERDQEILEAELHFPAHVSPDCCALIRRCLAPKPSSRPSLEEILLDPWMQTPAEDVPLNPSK
Excerpt: PIM2 In-Vitro Mobility Shift Assay
as §1, with “His-PIM2 [23-299]” for “His-PIM1 [2-313]”, “PIM2 (produced at AstraZeneca, R&D Boston)” for “PIM1 (University of Dundee, Scotland)”, “E. coli cells” for “baculovirus system”, “>90%” for “>85%”
as §2, with “5 uL” for “5 µl”, “and 12” for “and 240”, “5 uL” for “5 ul”, “and incubates” for “and incubated”, “90 minutes. One” for “90 minutes and”, “stops” for “stops the”

Row | Structure (SMILES) | inhibition at 0.3 µM (human His-PIM1 [2-313]) | inhibition at 0.3 µM (human His-PIM2 [23-299])
1 | N[C@H]1CN(c2c(Cl)cccc2/C=C2\SC(=O)NC2=O)CC[C@@H]1O (racemic) [Example 122M, (±)-(Z)-5-(2,3-amino-4-hydroxypiperidin-1-yl)-3-chlorobenzylidene)thiazolidine-2,4-dione hydrochloride] | > 95% | > 95%
2 | O=C1NC(=O)C(=Cc2c[nH]c3ccccc23)S1 (stereo in doubt) [Example 67, (Z)-5-((1H-indol-3-yl)methylene)thiazolidine-2,4-dione] |  | < 5%
3 | N[C@H]1CCCN(c2c(Cl)cc(C(F)(F)F)cc2/C=C2\SC(=O)NC2=O)C1 [Example 1, (S,Z)-5-(2-(3-aminopiperidin-1-yl)-3-chloro-5-(trifluoromethyl)benzylidene)thiazolidine-2,4-dione trifluoroacetate] | > 95% | 77.7%
4 | N[C@@H]1CCCN(c2c(Cl)cc(C(F)(F)F)cc2/C=C2\SC(=O)NC2=O)C1 [Example 2] | > 95% | > 95%
5 | NC1CCN(c2c(Cl)cc(C(F)(F)F)cc2/C=C2\SC(=O)NC2=O)CC1 [Example 3] | > 95% | 58%
6 | NCC1CCCN(c2c(Cl)cc(C(F)(F)F)cc2/C=C2\SC(=O)NC2=O)C1 (centres unmarked) [Example 4] | > 95% | 79.6%
7 | O=C1NC(=O)/C(=C/c2cc(C(F)(F)F)cc(Cl)c2N2CCCNCC2)S1 [Example 5A] | > 95% | 79.9%
8 | N[C@H]1CCN(c2c(Cl)cc(C(F)(F)F)cc2/C=C2\SC(=O)NC2=O)C1 [Example 5B] | > 95% | > 95%
9 | O=C1NC(=O)/C(=C/c2cc(C(F)(F)F)cc(Cl)c2N2CCN(C3CCCC3)CC2)S1 [Example 6, (Z)-5-(3-chloro-2-(4-cyclopentylpiperazin-1-yl)-5 (trifluoromethyl)benzylidene)thiazolidine-2,4-dione hydrochloride] | 79.4% | 9.5%
10 | O=C1NC(=O)/C(=C/c2cc(C(F)(F)F)cc(Cl)c2N2CCN(c3ccc(F)cc3)CC2)S1 [Example 7] | 5.4% | < 5%
11 | O=C1NC(=O)/C(=C/c2cc(C(F)(F)F)cc(Cl)c2N2CCN(Cc3ccc4c(c3)OCO4)CC2)S1 [Example 8] | 16.3% | < 5%
12 | Cc1noc(C2CCN(c3c(Cl)cc(C(F)(F)F)cc3/C=C3\SC(=O)NC3=O)CC2)n1 [Example 9] | 6.9% | < 5%
13 | O=C1NC(=O)/C(=C/c2cc(C(F)(F)F)cc(Cl)c2N2CCC(N3CCCC3)CC2)S1 [Example 10] | > 95% | 50.1%
14 | CC(C)N1CCN(c2c(Cl)cc(C(F)(F)F)cc2/C=C2\SC(=O)NC2=O)CC1 [Example 11] | 89.4% | 17.9%
15 | CC(C)CN1CCN(c2c(Cl)cc(C(F)(F)F)cc2/C=C2\SC(=O)NC2=O)CC1 [Example 12] | 80.2% | < 5%
16 | O=C1NC(=O)/C(=C/c2cc(C(F)(F)F)cc(Cl)c2N2CCC(CCO)CC2)S1 [Example 13] | < 5% | < 5%
17 | CN(C)[C@H]1CCN(c2c(Cl)cc(C(F)(F)F)cc2/C=C2\SC(=O)NC2=O)C1 [Example 14] | > 95% | 69.9%
18 | O=C1NC(=O)/C(=C/c2cc(C(F)(F)F)cc(Cl)c2N2CCN(c3ccc(Cl)cc3F)CC2)S1 [Example 15] | 12.9% | < 5%
19 | Cc1noc(C2CCCN(c3c(Cl)cc(C(F)(F)F)cc3/C=C3\SC(=O)NC3=O)C2)n1 (centres unmarked) [Example 16] | 13.9% | < 5%

Row | Structure (SMILES) | inhibition at 0.3 µM (human His-PIM1 [2-313]) | inhibition at 0.3 µM (human His-PIM2 [23-299])
20 | O=C1NC(=O)/C(=C/c2cc(C(F)(F)F)cc(Cl)c2N2CCN(Cc3ccncc3)CC2)S1 [Example 17] | 29.8% | < 5%
21 | O=C1NC(=O)/C(=C/c2cc(C(F)(F)F)cc(Cl)c2N2CCN(Cc3ccccc3Cl)CC2)S1 [Example 18] | < 5% | < 5%
22 | CN1CCC(N2CCN(c3c(Cl)cc(C(F)(F)F)cc3/C=C3\SC(=O)NC3=O)CC2)CC1 [Example 19] | > 95% | 38.3%
23 | O=C1NC(=O)/C(=C/c2cc(C(F)(F)F)cc(Cl)c2N2CCN(CCN3CCOCC3)CC2)S1 [Example 20] | 86.5% | 19.1%
24 | O=C1NC(=O)/C(=C/c2cc(C(F)(F)F)cc(Cl)c2N2CCN(CC3CC3)CC2)S1 [Example 21] | 82.9% | 15.8%
25 | O=C1NC(=O)/C(=C/c2cc(C(F)(F)F)cc(Cl)c2N2CCC(N3CCOCC3)CC2)S1 [Example 22] | 81.9% | 8.5%
26 | O=C1NC(=O)/C(=C/c2cc(C(F)(F)F)cc(Cl)c2N2CCN(CCCO)CC2)S1 [Example 23] | 87.6% | 19.7%
27 | CN(C)C1CCN(c2c(Cl)cc(C(F)(F)F)cc2/C=C2\SC(=O)NC2=O)CC1 [Example 24] | > 95% | 44.3%
28 | CN(C)CCCN(C)c1c(Cl)cc(C(F)(F)F)cc1/C=C1\SC(=O)NC1=O [Example 25] | > 95% | 68.4%
29 | O=C1NC(=O)/C(=C/c2cc(C(F)(F)F)cc(Cl)c2N2CCCN(CCO)CC2)S1 [Example 26] | > 95% | 49.6%
30 | CCCCN1CCCN(c2c(Cl)cc(C(F)(F)F)cc2/C=C2\SC(=O)NC2=O)CC1 [Example 27] | 90.8% | 25.1%
31 | O=C1NC(=O)/C(=C/c2cc(C(F)(F)F)cc(Cl)c2N2CCN(CCO)CC2)S1 [Example 28] | 90% | 27.4%
32 | O=C1NC(=O)/C(=C/c2cc(C(F)(F)F)cc(Cl)c2N2CCOCC2)S1 [Example 29] | 92.8% | 
33 | CC(C)(C)N1CCN(c2c(Cl)cc(C(F)(F)F)cc2/C=C2\SC(=O)NC2=O)CC1 [Example 30] | 90.8% | 15.6%
34 | O=C1NC(=O)/C(=C/c2cc(C(F)(F)F)cc(Cl)c2N2CCC(N3CCCCC3)CC2)S1 [Example 31] | 92.8% | 23.3%
35 | CN1CCN(c2c(Cl)cc(C(F)(F)F)cc2/C=C2\SC(=O)NC2=O)CC1 [Example 32] | 94% | 31.9%
36 | O=C1NC(=O)/C(=C/c2cnc3[nH]ccc3c2)S1 [Example 80, (5Z)-5-(1H-pyrrolo[2,3-b]pyridin-5-ylmethylene)-1,3-thiazolidine-2,4-dione] | < 5% | 
37 | CN(C)CCCOc1ccccc1/C=C1\SC(=O)NC1=O [Example 81, (5Z)-5-{2-[3-(dimethylamino)propoxy]benzylidene}-1,3-thiazolidine-2,4-dione] | < 5% | 
38 | O=C1NC(=O)/C(=C/c2cccc(N3CCOCC3)c2)S1 [Example 83, (5Z)-5-(3-morpholin-4-ylbenzylidene)-1,3-thiazolidine-2,4-dione trifluoroacetate] | 34% | 
